“And” between values parts separate entries of the source, which are not always exact repeats. Identical values can stand only once. Toxic doses and inconclusive results are not listed. Rule for the calls: active = survival T/C of 150% or more; inactive = T/C below 125% in these data. Peptide text beside a SMILES is read from it. * marks the point of attachment. Bn = c1ccc(C*)cc1
Test system: P388 leukemia ip, CD2F1 mice, survival T/C
Assay: NCI In Vivo Anticancer Drug Screen. Data for tumor model P388 Leukemia (intraperitoneal) in CD2F1 (CDF1) mice
Conditions: endpoint: median survival time, higher = longer survival
Procedure, shortened: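 Mice carrying the transplanted tumor received test compound or vehicle. Survival was recorded in each group, and the value is the treated-group measurement divided by that of the vehicle-treated control group.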

[1] = dose: 100.0 mg/kg/injection, schedule: Q04DX002 (ip), vehicle: saline with Tween-80
[2] = dose: 60.0 mg/kg/injection, schedule: Q01DX005 (ip), vehicle: saline with Tween-80
[3] = dose: 120.0 mg/kg/injection, schedule: Q01DX005 (ip), vehicle: saline with Tween-80
[4] = dose: 240.0 mg/kg/injection, schedule: Q01DX005 (ip), vehicle: saline with Tween-80
[5] = dose: 50.0 mg/kg/injection, schedule: Q01DX005 (ip), vehicle: saline with Tween-80
[6] = dose: 100.0 mg/kg/injection, schedule: Q01DX005 (ip), vehicle: saline with Tween-80
[7] = dose: 200.0 mg/kg/injection, schedule: Q01DX005 (ip), vehicle: saline with Tween-80
[8] = dose: 100.0 mg/kg/injection, schedule: Q01DX009 (ip), vehicle: saline
[9] = dose: 200.0 mg/kg/injection, schedule: Q01DX009 (ip), vehicle: saline
[10] = dose: 100.0 mg/kg/injection, schedule: Q01DX009 (ip), vehicle: saline with Tween-80
[11] = dose: 200.0 mg/kg/injection, schedule: Q01DX009 (ip), vehicle: saline with Tween-80
[12] = dose: 50.0 mg/kg/injection, schedule: Q01DX005 (ip), vehicle: Klucel (hydroxypropylcellulose) (HPC)
[13] = dose: 100.0 mg/kg/injection, schedule: Q01DX005 (ip), vehicle: Klucel (hydroxypropylcellulose) (HPC)
[14] = dose: 200.0 mg/kg/injection, schedule: Q01DX005 (ip), vehicle: Klucel (hydroxypropylcellulose) (HPC)
[15] = dose: 60.0 mg/kg/injection, schedule: Q01DX005 (ip), vehicle: saline
[16] = dose: 120.0 mg/kg/injection, schedule: Q01DX005 (ip), vehicle: saline
[17] = dose: 240.0 mg/kg/injection, schedule: Q01DX005 (ip), vehicle: saline
[18] = dose: 50.0 mg/kg/injection, schedule: Q01DX009 (ip), vehicle: saline with Tween-80
[19] = dose: 12.5 mg/kg/injection, schedule: Q01DX009 (ip), vehicle: saline with Tween-80
[20] = dose: 25.0 mg/kg/injection, schedule: Q01DX009 (ip), vehicle: saline with Tween-80

Measured: T/C

N#CCCC1CS1 (stereo not given)
inactive: dose: 18.75 mg/kg/injection, schedule: Q01DX009 (ip), vehicle: saline with Tween-80 103 % of control | dose: 37.5 mg/kg/injection, schedule: Q01DX009 (ip), vehicle: saline with Tween-80 108 % of control | dose: 75.0 mg/kg/injection, schedule: Q01DX009 (ip), vehicle: saline with Tween-80 109 % of control

O=S(=O)(NCCSSCCNS(=O)(=O)c1ccccc1)c1ccccc1
inactive: dose: 25.0 mg/kg/injection, schedule: Q01DX009 (ip), vehicle: other 96 % of control | dose: 50.0 mg/kg/injection, schedule: Q01DX009 (ip), vehicle: other 98 % of control and 105 % of control | dose: 100.0 mg/kg/injection, schedule: Q01DX009 (ip), vehicle: other 110 % of control | dose: 200.0 mg/kg/injection, schedule: Q01DX009 (ip), vehicle: other 103 % of control and 90 % of control

COc1ccc(Sc2c(C(=O)O)cccc2C(=O)O)cc1
inactive: [1] 102 % of control | dose: 200.0 mg/kg/injection, schedule: Q04DX002 (ip), vehicle: saline with Tween-80 100 % of control | dose: 400.0 mg/kg/injection, schedule: Q04DX002 (ip), vehicle: saline with Tween-80 101 % of control

Cc1cc(Cl)nc(Cl)c1C#N
inactive: dose: 18.75 mg/kg/injection, schedule: Q04DX003 (ip), vehicle: saline 98 % of control | dose: 37.5 mg/kg/injection, schedule: Q04DX003 (ip), vehicle: saline 103 % of control | dose: 75.0 mg/kg/injection, schedule: Q04DX003 (ip), vehicle: saline 103 % of control | dose: 150.0 mg/kg/injection, schedule: Q04DX003 (ip), vehicle: saline 99 % of control

O=[N+]([O-])c1cccc(C2=NON(c3ccccn3)C3C=CC=CN23)c1 (stereo not given)
inactive: [2] 94 % of control | [3] 90 % of control | [4] 92 % of control

COc1cccc(CSCC(N)C(=O)O)c1 (stereo not given)
inactive: [5] 104 % of control | [6] 104 % of control | [7] 90 % of control

CC(C)(C)OC(=O)NCC(=O)NNC(=O)OC(C)(C)C
inactive: [8] 118 % of control | [9] 118 % of control | dose: 400.0 mg/kg/injection, schedule: Q01DX009 (ip), vehicle: saline 118 % of control

CC(=O)[C@H]1CC[C@H]2[C@@H]3CCC4=CC(=O)C=C[C@]4(C)[C@H]3C(=O)C[C@]12C
inactive: [10] 100 % of control | [11] 100 % of control | dose: 400.0 mg/kg/injection, schedule: Q01DX009 (ip), vehicle: saline with Tween-80 100 % of control

COc1cc(-c2cc(=O)c3c(O)cc(O)cc3o2)cc(OC)c1O
inactive: dose: 5.0 mg/kg/injection, schedule: Q01DX009 (ip), vehicle: Klucel (hydroxypropylcellulose) (HPC) 100 % of control | dose: 10.0 mg/kg/injection, schedule: Q01DX009 (ip), vehicle: Klucel (hydroxypropylcellulose) (HPC) 98 % of control | dose: 20.0 mg/kg/injection, schedule: Q01DX009 (ip), vehicle: Klucel (hydroxypropylcellulose) (HPC) 100 % of control | dose: 40.0 mg/kg/injection, schedule: Q01DX009 (ip), vehicle: Klucel (hydroxypropylcellulose) (HPC) 90 % of control

CCOC(=O)C(CC(C(=O)O)c1ccccc1)c1ccccc1 (stereo not given)
inactive: [12] 100 % of control | [13] 96 % of control | [14] 96 % of control

C=C1CC(C)(C)CN(Cc2ccc([N+](=O)[O-])cc2)C(C(=O)OC)=C1C(=O)OC
inactive: [12] 87 % of control | [13] 95 % of control | [14] 94 % of control

O=C(O)c1cccc(O)c1O
inactive: [8] 101 % of control and 104 % of control | [9] 89 % of control and 96 % of control | dose: 600.0 mg/kg/injection, schedule: Q01DX009 (ip), vehicle: saline 101 % of control and 89 % of control

NCC(=O)NCC(=O)NC(Cc1ccc(OCc2ccccc2)cc1)C(=O)NC(CCCN=C(N)N)C(=O)O (stereo not given) (H-GGY(Bn)R-OH; configuration not given here)
inactive: [15] 95 % of control | [16] 100 % of control | [17] 100 % of control

CCN1CC[N+](CC)=C1C(=S)[S-]
inactive: dose: 100.0 mg/kg/injection, schedule: Q01DX001 (ip), vehicle: saline with Tween-80 100 % of control | dose: 200.0 mg/kg/injection, schedule: Q01DX001 (ip), vehicle: saline with Tween-80 104 % of control | dose: 400.0 mg/kg/injection, schedule: Q01DX001 (ip), vehicle: saline with Tween-80 100 % of control

CC1=NN(c2ccccc2)C(=O)/C1=C(\[O-])c1ccccc1.CC1=NN(c2ccccc2)C(=O)/C1=C(\[O-])c1ccccc1.CC1=NN(c2ccccc2)C(=O)/C1=C(\[O-])c1ccccc1.[Fe+3]
inactive: dose: 15.0 mg/kg/injection, schedule: Q01DX005 (ip), vehicle: saline with Tween-80 96 % of control and 97 % of control | dose: 30.0 mg/kg/injection, schedule: Q01DX005 (ip), vehicle: saline with Tween-80 101 % of control and 90 % of control | [3] 104 % of control and 87 % of control

FC(F)(Br)C(F)(Cl)Br (stereo not given)
inactive: [5] 101 % of control | [6] 99 % of control | [7] 114 % of control

CC1CC(C)(C)N=C(Cc2ccccc2)O1 (stereo not given)
inactive: [18] 100 % of control | [10] 101 % of control | [11] 89 % of control

NC(N)=N/N=C1/C=C2C/C(=N\N=C(N)N)C=C2C1
inactive: [12] 106 % of control | [13] 104 % of control

CC(C)N=C(C1=C(O)c2ccccc2C1=O)c1ccccc1
inactive: dose: 25.0 mg/kg/injection, schedule: Q04DX002 (ip), vehicle: saline with Tween-80 100 % of control | dose: 50.0 mg/kg/injection, schedule: Q04DX002 (ip), vehicle: saline with Tween-80 104 % of control | [1] 100 % of control

COc1cc(C2CC(C)(O)Oc3cc4c(cc32)OCO4)cc(OC)c1O (stereo not given)
inactive: [2] 95 % of control | [3] 98 % of control | [4] 95 % of control

CC1C(=O)CCC2(C)C1CCC1C3CCC(O)C3(C)CCC12 (stereo not given)
inactive: [19] 95 % of control | [20] 109 % of control | [18] 95 % of control

O=c1c[n+](-c2ccccc2)[nH]o1
inactive: dose: 100.0 mg/kg/injection, schedule: Q04DX003 (ip), vehicle: Klucel (hydroxypropylcellulose) (HPC) 109 % of control | dose: 200.0 mg/kg/injection, schedule: Q04DX003 (ip), vehicle: Klucel (hydroxypropylcellulose) (HPC) 100 % of control | dose: 400.0 mg/kg/injection, schedule: Q04DX003 (ip), vehicle: Klucel (hydroxypropylcellulose) (HPC) 104 % of control

Nc1ccc(C(=O)NO)cc1
inactive: dose: 25.0 mg/kg/injection, schedule: Q01DX009 (ip), vehicle: suspension in saline 99 % of control | dose: 50.0 mg/kg/injection, schedule: Q01DX009 (ip), vehicle: suspension in saline 99 % of control | dose: 100.0 mg/kg/injection, schedule: Q01DX009 (ip), vehicle: suspension in saline 96 % of control | dose: 200.0 mg/kg/injection, schedule: Q01DX009 (ip), vehicle: suspension in saline 109 % of control

Clc1ccc2c(c1)C(c1ccccc1Cl)=NCC(SCCN1CCOCC1)=N2
inactive: [15] 107 % of control | [16] 101 % of control | [17] 112 % of control

CC1=Nc2cc3ccccc3cc2N(C)/C1=C/C1=C(Cl)C(=O)c2ccccc2C1=O
inactive: [19] 96 % of control | [20] 100 % of control | [18] 92 % of control and 97 % of control | [10] 106 % of control | [11] 89 % of control

From PubChem BioAssay AID330 (DTP/NCI, 2004)
